Results: patent US20090048203A1, “SUBSTITUTED ADENINES AND THE USES THEREOF” (priority 2004, published 2009)
≈ marks a conversion by molar mass, not a printed value.

Legend:
S. pneumoniae LigA = S. pneumoniae LigA (Streptococcus pneumoniae serotype 4, UniProt Q97QT2); assay: DNA ligase inhibition, FRET detection assay; type: biochemical; conditions: ten compound concentrations; read-out: IC50 (μM) against S. pneumoniae LigA
Experimental: Compounds were tested for inhibition of DNA ligase using a Fluorescence Resonance Energy Transfer (FRET) detection assay as previously described (Chen et al. 2002. Analytical Biochemistry 309: 232-240; Benson et al. 2004. Analytical Biochemistry 324:298-300). Assays were performed in 384-well polystyrene flat-bottom black plates in 30 μl reactions containing 3 μl compound dissolved in dimethylsulfoxide, 20 μl 1.5× Enzyme Working Solution (25% glycerol, 45 mM potassium chloride, 45 mM ammonium sulfate, 15 mM dithiothreitol, 1.5 mM ethylenediaminetetraacetic acid (EDTA), 0.003% Brij 35, 75 mM MOPS pH 7.5, 150 nM bovine serum albumin, 1.5 μM NAD^+, 60 nM DNA substrate, 0.375 nM enzyme in water) and 7 μl […] magnesium chlorine solution (96 mM magnesium chloride, 20% glycerol in water) to initiate the reaction. The DNA substrate is similar to that described in Benson et al. (2004. Analytical Biochemistry 324:298-300). The assay reactions were incubated at room temperature for approximately 20 minutes before being terminated by the addition of 30 μl Quench reagent (8 M Urea, 1 M Trizma base, 20 mM EDTA in water). Plates were read in a Tecan Ultra plate reader at two separate wavelengths—Read 1: excitation 485, emission 535, Read 2: excitation 485, emission 595. Data is initially expressed as a ratio of the 595/535 emission values and percent inhibition values were calculated using […] dimethylsulfoxide (no compound) as the 0% inhibition and EDTA-containing (50 mM) reactions as 100% inhibition controls. Compound potency was based on IC50 measurements determined from reactions performed in the presence of ten different compound concentrations.

S. pneumoniae = assay: Bacterial susceptibility testing, microbroth dilution (MIC); type: cell-based; conditions: Streptococcus pneumoniae; lowest drug concentration able to reduce growth by 80% or more; read-out: MIC (μg/ml) against S. pneumoniae
Experimental: Compounds were tested for antimicrobial activity by susceptibility testing using microbroth dilution methods recommended by NCCLS. Compounds were dissolved in dimethylsulfoxide and tested in 10 doubling dilutions in the susceptibility assays such that the final dimethylsulfoxide concentration in the assay was 2% (v/v). The organisms used in the assay were grown overnight on appropriate agar media and then suspended in the NCCLS-recommended liquid susceptibility-testing media. The turbidity of each suspension was adjusted to be equal to a 0.5 McFarland standard, a further 1-in-10 dilution was made into the same liquid medium to prepare the final organism suspension, and 100 μL of this suspension was added to each well of a microtiter plate containing compound dissolved in 2 μL of dimethylsulfoxide. Plates were incubated under appropriate conditions of atmosphere and temperature and for times according to NCCLS standard methods prior to being read. The Minimum Inhibitory Concentration (MIC) was determined as the lowest drug concentration able to reduce growth by 80% or more.

Sequence of S. pneumoniae LigA (Q97QT2 whole entry): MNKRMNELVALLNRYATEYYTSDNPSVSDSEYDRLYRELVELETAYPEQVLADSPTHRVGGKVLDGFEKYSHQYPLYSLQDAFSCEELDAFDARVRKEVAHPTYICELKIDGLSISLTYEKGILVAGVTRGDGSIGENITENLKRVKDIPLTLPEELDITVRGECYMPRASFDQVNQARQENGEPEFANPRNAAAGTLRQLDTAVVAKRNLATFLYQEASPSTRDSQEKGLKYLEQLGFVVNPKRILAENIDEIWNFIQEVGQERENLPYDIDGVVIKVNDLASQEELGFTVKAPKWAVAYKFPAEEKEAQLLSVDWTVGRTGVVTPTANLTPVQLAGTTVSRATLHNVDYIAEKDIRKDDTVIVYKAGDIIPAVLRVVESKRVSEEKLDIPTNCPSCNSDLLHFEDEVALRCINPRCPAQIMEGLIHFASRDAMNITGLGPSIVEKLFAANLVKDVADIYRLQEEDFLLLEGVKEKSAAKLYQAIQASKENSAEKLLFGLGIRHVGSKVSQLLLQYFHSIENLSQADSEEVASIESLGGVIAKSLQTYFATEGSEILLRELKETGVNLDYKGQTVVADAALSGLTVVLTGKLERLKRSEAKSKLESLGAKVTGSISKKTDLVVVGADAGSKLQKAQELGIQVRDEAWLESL

Structure (SMILES)	IC50 (S. pneumoniae LigA) [µM]	MIC (S. pneumoniae) [µg/mL]
Nc1nc(SCc2ccco2)nc2c1ncn2C1CCCO1 (stereo not shown) [Example 6, 2-[(2-furylmethyl)thio]-9-(tetrahydrofuran-2-yl)-9H-purin-6-amine]	1.8	
Nc1nc(OCc2ccccc2)nc2c1ncn2C1CCCO1 (stereo not shown) [Example 25, 2-(benzyloxy)-9-(tetrahydrofuran-2-yl)-9H-purin-6-amine]	4	
Nc1nc(OC2CCCCC2)nc2c1ncn2C1CCCO1 (stereo not shown) [Example 27, 2-(cyclohexyloxy)-9-(tetrahydrofuran-2-yl)-9H-purin-6-amine]		8 (≈ 26.4 µM)
Nc1nc(OC2CCC3CCCCC3C2)nc2c1ncn2C1CCCO1 (stereo not shown) [Example 62, 2-(decahydronaphthalen-2-yloxy)-9-(tetrahydrofuran-2-yl)-9H-purin-6-amine]		4 (≈ 11.2 µM)
Nc1nc(OC2CCCC2)nc2c1ncn2C1OCCC1N (stereo not shown) [Example 128, 9-(3-aminotetrahydrofuran-2-yl)-2-(cyclopentyloxy)-9H-purin-6-amine]	0.7	
Nc1nc(OC2CCCC2)nc2c1ncn2[C@@H]1O[C@H](COCCO)[C@@H](O)[C@H]1O [Example 129, 2-(cyclopentyloxy)-9-[5-O-(2-hydroxyethyl)-β-D-ribofuranosyl]-9H-purin-6-amine]		8 (≈ 20.2 µM)
Nc1nc(OCC2CCCC2)nc2c1ncn2[C@@H]1O[C@H](CO)[C@@H](O)[C@H]1O [Example 172, 2-(Cyclopentyl)methoxy-9-β-D-ribofuranosyl-9H-purine-6-amine]	0.145	2 (≈ 5.47 µM)
C=C[C@H]1O[C@@H](n2cnc3c(N)nc(OC4CCCC4)nc32)[C@H](O)[C@@H]1O [Example 259, 2-(cyclopentyloxy)-9-(5,6-dideoxy-β-D-ribo-hex-5-enofuranosyl)-9H-purin-6-amine]	0.5	
COc1cccc(CO[C@H]2[C@@H](O)[C@H](n3cnc4c(N)nc(OC5CCCC5)nc43)O[C@@H]2C)c1 [Example 356]		4 (≈ 8.78 µM)
